In a melting point compilation (Tetko et al.; mined from patent text by program, amines drawn as free bases though some values may be those of a salt) one finds melting point data, which are given here for 86 compounds.

By melting point is commonly meant the temperature, or range, at which the solid turns liquid. On to `CCOC(=O)c1ncoc1-c1ccc([N+](=O)[O-])cc1Cl`, for which the melting point fell in the range of 140 to 141 °C. The result for `N#Cc1ccc(CC=O)cc1` reads 63 to 65 °C. The result for `Nc1ccc(CCc2n[nH]c3c2c(=O)n(-c2ccccc2)c2ncccc32)cc1` reads more than 310 °C.

`CC(C)(C=C=CC(=O)O)c1ccc(Cl)cc1` had a melting point of 64 to 67 °C.

In turn, `CCCCc1nc2ccc(N(C)C(=O)NC)cc2n1Cc1ccc(-c2ccccc2C(=O)O)cc1` came in with a melting point of 163 to 165 °C. For `CCOC(=O)c1cc2c(cn1)[nH]c1cccc(Oc3ncccn3)c12` the value was 273 to 275 °C. With `O=C(O)CC(Sc1ccccc1)c1ccccc1` (stereo unspecified), the melting point lay within 85 to 90 °C.

Consider `Cc1ccc2cccc(OCc3cc(N(C)C(=O)CN4C(=O)c5ccccc5C4=O)ccc3Cl)c2n1`, for which the melting point was 120 to 124 °C. The result for `CN(C)C(=N)CCCCCCCCCCCCC(=N)N(C)C` reads 209 °C. The compound `COC1COc2cc(NS(C)(=O)=O)c(Oc3ccccc3)cc2C1=O` (stereo unspecified) yielded a melting point of 139 to 141 °C. The result for `COC(=O)c1cscc1NC(=O)COc1ccc(Br)cn1` reads 138 to 140 °C; that for `O=C1OC(Br)c2cc(Br)ccc21` (stereo unspecified), 100 °C; that for `N#CC1=C(C2CCCN2)Nc2n[nH]cc2C1c1cccc2nonc12` (stereo unspecified), more than 240 °C. For `NCC(=O)Nc1ccc(Cl)cc1C(=O)c1c(F)cccc1F` the value was 133 to 135 °C. The compound `CC(C)n1nc(C(=O)NCC2CCN(CCc3ccc(C(=O)O)cc3)CC2)c2ccccc21` yielded a melting point of 179 to 181 °C. The result for `O=C(O)CCc1cccc(C(O)(C(F)(F)F)C(F)(F)F)c1` reads 112 to 113 °C. Compound `CCOC(=O)c1c(N2CCN(C(=O)c3ccco3)CC2)c2sccc2n(CC(=O)c2ccccc2)c1=O` yielded a melting point of 246 °C. The result for `CC(=O)NC1=NN(c2ccc(Cl)cc2)C(C)C1` (stereo unspecified) reads 167 to 169 °C; that for `Cc1ccc2oc(=O)c(C(=O)Oc3cccc4cnccc34)cc2c1`, 188 to 190 °C; that for `COc1ccc(C2=NN(Cc3ccccc3O)C(=O)[C@H]3CCCC[C@@H]23)cc1OC` (relative stereo), 132 to 133 °C. For `O=C(Cc1ccc(CCNS(=O)(=O)c2ccc(Cl)cc2)cc1)Nc1nnn[nH]1` the value was 168 to 170 °C; for `CCOC(=O)C(=O)Nc1cc2[nH]c(=O)c(=O)n(C3CCCCC3)c2cc1[N+](=O)[O-]`, 260 °C; for `COc1ccccc1N1CCN(c2nc3cccc4c3n2CCC4)CC1`, 199 to 201 °C.

On to `CC(=O)Nc1cc([N+](=O)[O-])c(F)cc1Cl`, for which the melting point is 158 to 160 °C. For `CCCCc1ncc(/C=C(/C=C/C(=O)O)Cc2cccs2)n1Cc1ccccc1Cl` the value was 191 to 192 °C; for `COc1cc2nc(N3CCN(C(=O)c4nnc(SC)o4)CC3)nc(N)c2cc1OC`, 228 to 230 °C. The result for `O=C1Nc2c(ccc3ccccc23)OC1c1ccc(Cl)cc1` (stereo unspecified) reads 230 to 232 °C; that for `Cn1c(=O)cnn(-c2cc(Cl)c(C(C#N)c3ccc(Cl)cc3)c(Cl)c2)c1=O` (stereo unspecified), 160 °C; that for `O=C(Nc1ccc(-n2nc(C(F)(F)F)cc2C(F)(F)F)cc1)C1CC1`, 204 to 205 °C. For `COc1ccc(N2CC(CCN3CCC(O)(c4ccc5c(c4)OCO5)CC3)OC2=O)cc1` (stereo unspecified) the value was 128 to 130 °C. `CN1CCN(C(=O)CCC(=O)N[C@@H]2CN3C(=O)N(c4cc(Cl)nc(Cl)c4)C(=O)[C@@]3(Cc3ccc(OC(F)(F)F)cc3)C2)CC1` gave a melting point of 70 °C. For the compound `CC(C)(C)c1ccc(-c2ccc(C(C)(C)C)c(O)c2)cc1`, the melting point is 86 to 87 °C. The result for `O=C(O)c1sccc1OC(F)F` reads 98 to 100 °C; that for `O=C(CCCCCNCc1cc2nc(-c3cccc4[nH]ncc34)nc(N3CCOCC3)c2s1)NO`, 128 to 130 °C. For `Cc1cc2cc(CN3CCCC3)cnc2cc1NC(=O)c1ccc(-c2cc3ccccc3o2)cc1` the value was 219 °C; for `CC(C)(CCl)C(=O)N(Cc1ccccc1Cl)OC(=O)c1ccccc1`, 117 to 120 °C. For `O=c1c2cc(F)c(N3CCCC3)nc2n(-c2ccccc2F)c(=O)n1O` the value was more than 250 °C. `CCCc1c(OCCCCCCc2ccc(O)c(O)c2Cl)ccc(C(=O)O)c1O` came in with a melting point of 145 to 146 °C. For `Nc1nc2c(sc(=O)n2CC2CCCO2)c(=O)[nH]1` (stereo unspecified) the value was 257 to 261 °C. The result for `CCc1nc2cccc(C(=O)O)c2n1Cc1ccc(-c2ccccc2-c2nnn[nH]2)cc1` reads 261 to 262 °C; that for `CCn1ncc2c1ncc1c(=O)n(CCN3CCOCC3)c3cc(C)nn3c12`, 140 to 141 °C. The result for `CS(=O)(=O)c1ccc(-n2nc(C(F)(F)F)cc2-c2nc3cc(F)ccc3[nH]2)cc1` reads 278 to 280 °C; that for `Cc1ccccc1N(C(=O)Nc1cc(C)c(S(=O)(=O)C[N+](=O)[O-])c(C)c1)C(C)C`, 177 to 178 °C. For `O=C(CNC(=O)c1ccccc1)c1ccccc1`, the melting point was in the range of 114 to 120 °C. For `CCCCCCCCCCCCCCSCc1ccc(C(C)=O)o1` the value was 55 to 57 °C; for `Cn1cncc1C(c1ccc(Cl)cc1)c1ccc2c(c1)C(c1cccc(Cl)c1)SCCC(=O)N2` (stereo unspecified), 199 °C. The result for `COC(=O)CCn1c(=O)n(CCN2CCN(c3ccccc3)CC2)c(=O)c2cscc21` reads 133 to 134 °C; that for `CN(C)C=NS(=O)(=O)c1cc(CCNC(=O)C(F)(F)F)ccc1O`, 160 to 161 °C. The result for `N#Cc1cccc(Cn2cnc(C(N)=O)c2N)c1` reads 246 to 247 °C; that for `Cn1ccc2c(N3CCN(CC4CCc5ccccc5N4C(=O)C4CCCCC4)CC3)cccc21` (stereo unspecified), 66 to 70 °C; that for `CN(C)c1cnn(C)c(=O)c1-c1ccccc1C=NO`, 202 to 203 °C.

For `CC(C)(O)c1ccc(CNC(=O)c2cccnc2Oc2ccc3nsnc3c2)c(F)c1`, the melting point was 124 to 125 °C.

Consider `COc1ccc(Cl)cc1C(CCO)c1ccccc1` (stereo unspecified), for which the melting point was 80 °C. Take `CCCC12CCC3C4CCC(=O)C=C4CCC3C1CCC2(O)CC` (stereo unspecified): the melting point lay within 93 to 95 °C. In the case of `COc1c2ccccc2c(-c2c(-c3c4ccccc4c(OC)c4ccccc34)c2=O)c2ccccc12`, the melting point was in the range of 265 to 270 °C. The result for `C[C@H](CO)Nc1nc(SCc2ccno2)nc2[nH]c(=O)cnc12` reads 191 to 194 °C; that for `COC(=O)C(=CNc1ccc(F)c(F)c1OCC(C)O)C(=O)OC` (stereo unspecified), 107 to 108 °C. Turning to `CC1(C)C(=O)Nc2cc3[nH]c(-c4cncnc4)nc3cc21`, the melting point was in the range of 310 to 312 °C.

Regarding `Cc1cc(-c2ccc(S(N)(=O)=O)cc2)n(-c2ccc(F)cc2F)c1`, the melting point was 140 to 141 °C. The result for `O=C(NCCCCCCO)OC1CCN(C(=O)Oc2ccc(Oc3ccccc3)cc2)CC1` reads 69 to 72 °C. `CCCS(=O)(=O)Nc1ccc(C(=O)c2nc(-c3cccc(C(=O)O)c3)c3ccccn23)cc1OC` displayed a melting point of 145 °C. The result for `O=C(OC(c1ccccc1)c1ccccc1)[C@H](O)CCc1ccccc1` reads 82 to 84 °C; that for `CCCOC(=O)c1cccc(CCN(C)CCCC(C#N)(c2ccc(OC)c(OC)c2)C(C)C)c1` (stereo unspecified), 110 to 114 °C; that for `COC(=O)CC1(C)Oc2ccc([N+](=O)[O-])cc2-n2c(Cl)ccc21` (stereo unspecified), 124 to 125 °C. The result for `COC(=O)c1cc([N+](=O)[O-])c(F)cc1F` reads 78 to 80 °C; that for `Cc1ccc(-n2c(=O)n(O)c(=O)c3cc(F)c(N4CCCC4)nc32)cc1`, 228 to 230 °C. For `CCCOc1ncc(S(C)(=O)=O)cc1-c1nc2c(CC)nn(C[C@@H]3CCCN3C)c2c(=O)[nH]1` the value was 182 to 183 °C; for `CCCCOc1ccc(/C=C/c2nc3c([nH]2)c(=O)n(CCC)c(=O)n3CCC)cc1`, 237 to 239 °C. Turning to `COc1ccc2cc(CC(O)C(C)=O)ccc2c1` (stereo unspecified), the melting point was in the range of 107 to 110 °C. The result for `O=C(O)c1cc2cccc(OCC3CO3)c2o1` (stereo unspecified) reads 117 to 119 °C.

`O=[N+]([O-])c1ccccc1Nc1cccc(Nc2ccc(C(F)(F)F)cc2[N+](=O)[O-])c1` gave a melting point of 95 to 98 °C. `CCC1NC(=O)N(C)C(=O)N1` registered a melting point of 202 to 203 °C. `COc1c(F)c(F)c(-c2c3ccccc3c(-c3ccccc3)c3ccccc23)c(F)c1F` gave a melting point of 153 to 154 °C.

On to `O=C(CCc1ccccc1)CN1C(=O)CC1S(=O)c1ccccc1` (mixture of isomers), for which the melting point lay within 49 to 51 °C. The result for `CN(c1ccnc(Cl)n1)n1cccc1` reads 102 to 103 °C; that for `CCN(CC)C(=O)c1ccc(OCOC)cc1-c1ccccc1`, 63 to 64 °C. For `CC(C)c1ccc(-n2c(CC(=O)O)c(C(=O)O)c3cc(Oc4cccc(C(F)(F)F)c4)ccc32)cc1` the value was 185 to 190 °C; for `CC(=O)Nc1ccc(S(=O)(=O)Nc2ccc(S(=O)(=O)C=CC#N)cc2)cc1`, 204 to 205 °C; for `COC(=O)c1ccc(-c2n[nH]c(-c3ccccc3)n2)cc1`, 243 to 244 °C.

For the compound `Cc1ccnc2c1nc(-c1cccnc1N)n2-c1ccc(CN)cc1`, the melting point was in the range of 210 to 212 °C. As for `c1ccc(C2CCNC3=NCCN32)cc1` (stereo unspecified), the melting point amounted to 146 °C. `CCCCc1nn(-c2cc(NC(=O)CC)ccc2Cl)c(=O)n1Cc1ccc(-c2ccccc2S(=O)(=O)NC(=O)OC(C)(C)C)cc1F` showed a melting point of 137 to 140 °C.

In turn, `CC(C)(C)OC(=O)N=C(N)N(Cc1ccc(OCCC2Oc3cc([N+](=O)[O-])ccc3N(Cc3cccc(Cl)c3)C2=O)cc1)C(=O)OC(C)(C)C` (stereo unspecified) had a melting point of 67.5 °C. The result for `CCOC(=O)NN=Cc1nc(-c2ccccc2)[nH]c1C` reads 209 to 211 °C; that for `O=C1Nc2ccccc2N(C(=O)N2CCOC(CCN3CCCCC3)C2)c2ncccc21` (stereo unspecified), 136 to 138 °C; that for `Cn1c(C(F)(F)F)nc(-c2ccc(F)cc2)c1-c1ccc(S(C)(=O)=O)cc1`, 187 to 189 °C.
